# Results taken from patent US20040229960A1, “Compositions and methods of administering tubulin binding agents for the treatment of ocular diseases” (priority 2001, published 2004).
# Legend:
# [1] = Biodistribution of 14C-CA4P following intravitreal injection; type: in vivo, New Zealand rabbits
# Method: ^14C-CA4P (OXiGENE Inc., Watertown, Mass.) was resuspended in 100 ul volume of saline solution and injected with a 30 G needle into the right eyes of anesthesized male New Zealand rabbits (4 months old, 1.8-2.5 kg, n=3 per sample). Three different concentrations of ^14C-CA4P were tested (1, 10, 100 mg/ml) corresponding to doses of 1, 5, and 5 uCi of applied radioactivity respectively. A blank control group was also included. Rabbits were anaesthetized at 1, 6, 24, and 48 hours for blood sampling. After blood collection, the animals were euthanized by Phenobarbital injection and the treated right eyes were removed from all test animals. Ocular tissue samples were dissected from the cornea, aqueous humor, vitreous humor, choroid, or retina, placed in 20-mi glass scintillation vials, vortexed, and incubated for 24 hrs with 500 ul digesting fluid. Plasma was separated from whole blood by centrifugation (1,800 g for 10 minutes). Both ocular tissue samples and plasma were incubated at room temperature with 16 ml of Hionic Fluor™ scintillation fluid for a period of 24 hours prior to radioactivity counting. Each sample was counted for 5 minutes in a Betamatic V counter (Bio-Tek Kontron Instruments, St Quentin en Yvelines, France). The conversion of counts per minute (“cpm”) into disintegrations per minute (“dpm”) was performed automatically by the beta-counter, using calibration curves obtained from ^14C-standards and quenching curves from the respective blank matrices spiked with ^14C-standards. The concentration of drug was determined according to nanogram equivalents of CA4P (ng-Eq/g of tissue) which was calculated from the measured dpm value, the weight of the tissue specimen, and the specific activity of the drug (0.37 mCi/mg), followed by subtraction of the corresponding background value from control eye tissue. A tissue concentration of 1 uM CA4P is equal to […] tissue.
# [2] = Transscleral iontophoretic delivery to retina/choroid (LC/MS/MS); type: in vivo, New Zealand white rabbits; conditions: for Enhancement: 20 min vs passive 0 mA; for Amount CA4P Delivered / Amount CA4 Delivered / Total Combretastatin Delivered: retina/choroid, mean ± SD; for Amount CA4P Delivered / Amount CA4 Delivered: CA4P 10 mg/ml; for Amount CA4 Delivered: extrapolated beyond quantification range
# Method: CA4P is ionizable at physiological pH and therefore is amenable to iontophoretic delivery. The effectiveness of transcleral iontophoretic delivery of CA4P was evaluated using an ocular rabbit ophthalmic applicator (IOMED Inc.,.Salt Lake City, Utah) composed of an 180 ul silicone receptacle shell backed with silver chloride-coated silver foil current distribution component, a connector lead wire, and a single layer of hydrogel-impregnated polyvinyl acetal matrix to which CA4P (10 mg/ml) was administered. The contact surface area of the applicator was 0.54 cm^2. […] Direct current anodal iontophoresis was performed with each applicator at 2,3,and 4 mA for 20 min using an Phoresor II™ PM 700 (IOMED Inc., Salt Lake City, Utah) power supply. Passive iontophoresis (0 mA for 20 min) was used as a control. Following treatment, the animals were euthanized, and eyes were enucleated 30 minutes post-treatment, rinsed with tap water, and frozen at −70 C. Retina and choirodal tissue was dissected from these sample.
# CA4P, CA, and the internal standard Diethylstilbestrol (Sigma Chemical Company) were quantified from approximately 100 mg of tissue using chromatography tandem mass spectrometry (“LC/MS/MS”) method. An aliquot of methonal extraction was injected onto a SCIEX APIO 3000 LC/MS/MS apparatus equipped with an HPLC colum. Peak area of the m/z 315→285 product ion of CA43 and m/z 395→79 product ion of CA4P were measured against the peak area of the m/z 267→237 product ion of the internal standard. Quantitation was performed using weighted (1/x) linear least squares regression analyses generated from fortified calibration standards prepared immediately prior to each run. […] These levels represent a several thousand-fold excess over what is considered to be a therapeutically relevant concentration for inhibiting tubulin binding (2-3 uM).
# [3] = test system: corneal neovascularization; assay: LHP-induced rabbit corneal neovascularization model, IP treatment; type: in vivo, New Zealand rabbits; conditions: for Effect on neovascular growth: 50 mg/kg IP
# Text: To assess the ability of CA4P to inhibit corneal neovascularization, a rabbit corneal model was used in which neovascularization was induced by linoleic acid hydroperoxide (“LHP”) injection (Ueda et al., Angiogenesis, 1997, 1: 174-184). Injection of LHP in the corneal stroma stimulates the localized production of angiogenic cytokines within the cornea. Blood vessels in the circumlimbal plexus respond to the angiogenic stimulation by migrating towards the site of LHP injection. Therapeutic efficacy of systemically delivered CA4P was assessed by measuring the length of these proliferating vessels.
# Vessels grew at a rate of 0.25 mm/day. Groups 2 and 4 were injected intraperitoneally (“IP”) with CA4P (50 mg/kg) after 3 and 10 days of vessel growth respectively. Treatment groups 1 and 3 were injected with saline control on day 3 and day 10 post-LHP injection. Surface photographs of the cornea were taken at 0, 3, 6, 12, 17, and 28 days post-LHP injection. Following each photographic session, corneal vessels were observed under an operating microscope and Castroviejo calipers were used to measure the length of the most prominent vessel.
# In addition to longest-vessel measurements, histology analysis was undertaken on day 28 to assess the amount of dissolved extracellular matrix, vessel wall thickness, and degree of vessel branching. Euthanized animals were enucleated and the vitreous was removed from each eye prior to fixation in 4% paraformaldehyde for 45 minutes and 0.2M cacodylate buffer (pH 7.4) overnight. Eyes were embedded in paraffin, sectioned to a 3 um thickness, and stained with […] and eosin.
# [4] = test system: corneal neovascularization; assay: as above; type: in vivo, New Zealand rabbits; conditions: late intervention, 50 mg/kg IP from Day 10 (Group 4)
# [5] = early intervention, 50 mg/kg IP qd x 5 from Day 3 (Group 2)
compound,measurement,setting,value
"COc1ccc(/C=C\c2cc(OC)c(OC)c(OC)c2)cc1OP(=O)([O-])[O-].[Na+].[Na+] [CA4P, combretastatin A4 disodium phosphate]",Cmax,"[1]; aqueous humor, 1 mg/ml intravitreal",0.15 µM
same,Cmax,"[1]; aqueous humor, 10 mg/ml intravitreal",0.79 µM
same,Cmax,"[1]; aqueous humor, 100 mg/ml intravitreal",460 µM
same,Cmax,"[1]; cornea, 1 mg/ml intravitreal",95 µM
same,Cmax,"[1]; cornea, 10 mg/ml intravitreal",969 µM
same,Cmax,"[1]; cornea, 100 mg/ml intravitreal",5870 µM
same,Time of highest concentrations of drug in the eye,[1]; intravitreal injection,within the first hour
same,Cmax,"[1]; plasma, 1 mg/ml intravitreal",0.4 µM
same,Cmax,"[1]; plasma, 10 mg/ml intravitreal",0.2 µM
same,Cmax,"[1]; plasma, 100 mg/ml intravitreal",0.78 µM
same,Cmax,"[1]; retina, 1 mg/ml intravitreal",160 µM
same,Cmax,"[1]; retina, 10 mg/ml intravitreal",1980 µM
same,Cmax,"[1]; retina, 100 mg/ml intravitreal",10700 µM
same,Concentration of drug delivered,"[1]; retina, all concentrations tested, intravitreal",> 1 µM
same,Cmax,"[1]; sclera, 1 mg/ml intravitreal",19 µM
same,Cmax,"[1]; sclera, 10 mg/ml intravitreal",153 µM
same,Cmax,"[1]; sclera, 100 mg/ml intravitreal",16100 µM
same,Cmax,"[1]; vitreous, 1 mg/ml intravitreal",75 µM
same,Cmax,"[1]; vitreous, 10 mg/ml intravitreal",757 µM
same,Cmax,"[1]; vitreous, 100 mg/ml intravitreal",10000 µM
same,Enhancement,[2]; 2 mA,17
same,Enhancement,[2]; 3 mA,16
same,Enhancement,[2]; 4 mA,15
same,Enhancement of delivery of total combretastatin to choroid and retina by iontophoresis,[2]; iontophoresis vs passive delivery,approximately 15 fold
same,Amount CA4P Delivered,"[2]; 0 mA, 20 min (passive)",<0.4 ng
same,Amount CA4 Delivered,"[2]; 0 mA, 20 min (passive)",57 ± 37 ng
same,Total Combretastatin Delivered,"[2]; 0 mA, 20 min (passive)",1.6 ± 1.0 nmol/g
same,Amount CA4P Delivered,"[2]; 2 mA, 20 min",1.4 ± 0.5 ng
same,Amount CA4 Delivered,"[2]; 2 mA, 20 min",910 ± 630 ng
same,Total Combretastatin Delivered,"[2]; 2 mA, 20 min",27 ± 15 nmol/g
same,Amount CA4P Delivered,"[2]; 3 mA, 20 min",3.8 ± 1.5 ng
same,Amount CA4 Delivered,"[2]; 3 mA, 20 min",710 ± 450 ng
same,Total Combretastatin Delivered,"[2]; 3 mA, 20 min",25 ± 17 nmol/g
same,Amount CA4P Delivered,"[2]; 4 mA, 20 min",7.2 ± 6.3 ng
same,Amount CA4 Delivered,"[2]; 4 mA, 20 min",670 ± 440 ng
same,Total Combretastatin Delivered,"[2]; 4 mA, 20 min",24 ± 10 nmol/g
same,Histology of corneal vessels,"[3]; Day 28, stained sections, vs vehicle (round and numerous)",vessels appeared narrow and less numerous
same,Vessel Length on Day 6,[3]; [5],0.7 ± 0.16 mm
same,Vessel Length on Day 12,[3]; [5],0.5 ± 0.61 mm
same,Vessel Length on Day 3,"[3]; early intervention, 50 mg/kg IP qd x 5 from Day 3 (Group 2), Day 3 = treatment start",0.6 ± 0.12 mm
same,Effect on neovascular growth,[3]; intervention 10 days after angiogenic stimulation,the effect was the same
same,Effect on neovascular growth,[3]; intervention within 3 days of angiogenic stimulation,complete inhibition of neovascular growth
same,Vessel Length on Day 12,"[3]; late intervention, 50 mg/kg IP from Day 10 (Group 4), first column",2.6 ± 0.29 mm
same,Vessel Length on Day 12,"[3]; late intervention, 50 mg/kg IP from Day 10 (Group 4), second column",2.8 ± 0.49 mm
same,Regression rate of preformed vessels in the eye,"[3]; rabbit eyes, preliminary work (FIGS. 3, 4)",accelerated the regression rate of preformed vessels
same,Vessel Length on Day 24,[4],1.4 ± 0.46 mm
